Results: patent publication US20250034135A1, “ANTI-APOPTOTIC PROTEIN BCL-2 INHIBITOR, PHARMACEUTICAL COMPOSITION AND USES THEREOF” (HANGZHOU HEALZEN THERAPEUTICS CO., LTD., priority 2021, published 2025)
pIC50: −log10 of the molar value. Like-named read-outs stand apart in the source and are kept apart here.

Tests used:
human CYP3A4 enzyme [1] = target: T1, human CYP3A4 enzyme (Homo sapiens (Human), UniProt P08684)
Method: (§1) The inhibitory activity of compounds on human CYP3A4 enzyme was detected using a VIVID™ CYP3A4 GREEN SCRNING KIT reagent kit. The Vivid™ CYP450 screening kit includes a Vivid™ substrate, Vivid™ fluorescence standard, reaction buffer, Vivid™ regeneration system, NADP+ and CYP450 BACULOSOMES™ Plus reagent. Operations were performed following the instructions, and a blank control group was set up without adding any compounds.
(§2) The IC50 value of the compounds inhibiting human CYP3A4 enzyme was calculated using Graphpad Prism 7.00 software through the formula Y=100/(1+10^((Log IC50−X)*HillSlope)).

[2] = beagle, dog, in vivo, 5 mg/kg
Method: (§3) Experimental method: Beagle dogs were used as experimental animals and administered 5 mg/kg by gavage. The blood collection time points for gavage administration were 0, 0.5, 1, 2, 3, 4, 6, 8, and 24 hours. 3 mL of whole blood was collected, and after centrifugation, plasma was taken for LC-MS analysis.

in vivo = details: Sprague-Dawley, rat, po, 10 mg/kg
Method: (§4) Experimental method: SD rats were used as experimental animals and administered 10 mg/kg by gavage. The blood collection time points for gavage administration were 0, 0.5, 1, 2, 3, 4, 6, 8, and 24 hours. 3 mL of whole blood was collected, and after centrifugation, 1 mL of plasma was taken for LC-MS analysis.

BCL2 = BCL2 (Homo sapiens (Human), UniProt P10415); experiment: Molecular level activity test of anti-apoptotic protein BCL2 (HTRF, binding to Bim peptide); details: HTRF, binding of BCL2 to Bim peptide; read-out: BCL2 nM (inhibitory activity, IC50)
How it was run: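 Disruption of the BCL2/Bim peptide interaction is detected by homogeneous time-resolved fluorescence, using anti-His and streptavidin-XL665 reagents against His-tagged protein and biotin-tagged peptide. Compound exposure lasts 1 h before reagent addition; plates then sit 4 h at room temperature.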

BCL2 (G101V) = BCL2 (G101V) (Homo sapiens (Human), UniProt P10415, G101V); experiment: Molecular level activity test of anti-apoptotic protein BCL2 (G101V) (HTRF, binding to Bim peptide); details: inhibition of BCL2 (G101V) binding to Bim peptide, read-out: BCL-2 (G101V)
How it was run: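 His-tagged recombinant BCL2 (G101V) incubated 1 h with biotin-BIM peptide and compound (2% DMSO), then anti-His and streptavidin-XL665 detection reagents added for 4 h at room temperature. HTRF signal reflects compound effect on BCL2–BIM binding.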

BCL2 (D103Y) = BCL2 (D103Y) (Homo sapiens (Human), UniProt P10415, D103Y); experiment: Molecular level activity test of BCL2 (D103Y) (HTRF, binding to Bim peptide); details: read-out: BCL-2 (D103Y) (nM) (inhibitory activity, IC50)
How it was run: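 His-tagged recombinant protein mixed with biotinylated BIM peptide and compound (2% DMSO), reacted 1 h. Anti-His and streptavidin-XL665 detection reagents then added and incubated 4 h at room temperature before HTRF read-out of binding inhibition.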

RS4; 11 cells [3] = experiment: Tumor proliferation inhibitory activity test (MTS) on RS4; 11; format: cell-based; details: 3 days incubation
How it was run: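 RS4;11 cells were exposed to serially diluted compound (0.2% DMSO control) for 3 days at 37 °C/5% CO2, followed by MTS for 3–4 h. Read-out was OD490−OD690, and inhibition was calculated relative to the DMSO and blank wells.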

BCL-XL = BCL-XL (Homo sapiens (Human), UniProt Q07817); experiment: BCL-XL enzyme molecular level activity test (HTRF, binding to BIM peptide); details: binding of BCL-XL to BIM peptide, read-out: BCL-XL inhibitory activity (IC50)
How it was run: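 HTRF binding assay: His-tagged recombinant BCL-XL with biotin-BIM peptide and compound (2% DMSO), 1 h. Anti-His and streptavidin-XL665 detection reagents added, 4 h at room temperature. Excitation 320 nm; 665/615 nm ratio reflects binding, with no-protein background and no-compound full-binding controls.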

human platelets = experiment: Platelet viability test (CTG); format: cell-based; details: CTG after 24 h
Method: After 10 mL of platelet-rich plasma was added to 30 mL of ACD-A solution and uniformly mixed, centrifugation was performed at 1200 g, and the supernatant was discarded; 10 mL of ACD-A solution was added, resuspended, uniformly mixed, and centrifuged at 1200 g for 10 min, and the supernatant was discarded. 5 mL of HEPES-Tyrode's buffer containing 1 μM PGE1 and 0.2 U/mL apyrase was added, slightly inverted, and then centrifuged at 800 g for 5 min, and the supernatant was discarded. 10 mL of HEPES-Tyrode's buffer containing 1 μM PGE1 and 0.2 U/mL apyrase was added, resuspended, and centrifuged at 1000 g for 5 min, and the supernatant was discarded. 2 mL of HEPES-Tyrode's buffer containing 1 μM PGE1+10% FBS-resuspended platelets was added, 200 μL was taken into a centrifuge tube and diluted to 2 mL. Then it was diluted to 1, 0.8, 0.6, 0.4, 0.2, 0.1, 0.08, 0.06, 0.04, 0.02, 0.01 times, the volume was complemented to 100 μL, and 50 μL of CTG reagent was added to detect cell viability. The maximum valid dilution with a fluorescence value not exceeding […] was selected for dilution, 90 μL/well was connected to a 96-well cell plate for chemiluminescence detection. A compound was prepared with HEPES-Tyrode's buffer containing 1 μM of PGE1+10% FBS, and added to the cells, which was gently beaten evenly and detected for cell viability by adding 50 μL CTG after 24 h.

RS4; 11 cells [4] = experiment: In vivo anti-tumor efficacy, RS4; 11 subcutaneous transplanted tumor model; details: 11 transplanted tumor, NOD/SCID mice, after 8 days
From the text: Tumor models were established by subcutaneous inoculation of RS4; 11 cells into NOD/SCID mice. When the tumors grew to about 100 mm^3, the mice were divided into groups and administered as follows: The control group was given a corresponding volume of CMC-Na solution by gavage; […]; the weight and tumor size changes of the mice were weighed twice a week, and after 8 days, the efficacy of the compounds on RS4; 11 mice transplanted tumors was investigated.
The relative tumor proliferation rate T/C %=TRTV/CRTV×100% (TRTV: average RTV of the treatment group; CRTV: average RTV of the negative control group). Based on the results of tumor measurements, the relative tumor volume (RTV) was calculated using the formula RTV=Vt/V0, where V0 was the tumor volume measured during group division (i.e. D0), Vt was the tumor volume at a certain measurement, and TRTV and CRTV used the data of the same day.

Rat absorption test = details: Sprague-Dawley, plasma, po, 10 mg/kg
Method: as §4

Canine absorption test = details: Beagle dogs, 5 mg/kg by gavage
Method: as §3

human CYP3A4 enzyme [5] = target: T1, human CYP3A4 enzyme; experiment: CYP3A4 enzyme inhibitory activity (Vivid CYP3A4 Green screening kit); details: read-out: CYP3A4 (IC50); Vivid CYP3A4 Green screening kit
Method: as §1, §2

T1 sequence (P08684 whole entry): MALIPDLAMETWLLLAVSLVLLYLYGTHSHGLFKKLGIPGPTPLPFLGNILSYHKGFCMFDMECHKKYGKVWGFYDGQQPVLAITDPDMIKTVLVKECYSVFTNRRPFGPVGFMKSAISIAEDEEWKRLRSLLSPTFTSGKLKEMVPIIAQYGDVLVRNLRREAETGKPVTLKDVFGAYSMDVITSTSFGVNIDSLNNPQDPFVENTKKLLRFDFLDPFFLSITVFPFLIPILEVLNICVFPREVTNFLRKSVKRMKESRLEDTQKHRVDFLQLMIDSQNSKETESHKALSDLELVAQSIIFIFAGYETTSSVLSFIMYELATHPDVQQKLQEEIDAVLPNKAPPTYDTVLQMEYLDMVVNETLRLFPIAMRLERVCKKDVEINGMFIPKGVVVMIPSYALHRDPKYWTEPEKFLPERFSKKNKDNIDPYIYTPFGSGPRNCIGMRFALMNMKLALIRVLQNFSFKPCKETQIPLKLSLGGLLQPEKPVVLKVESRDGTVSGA
Chain of BCL-XL (Q07817 whole entry): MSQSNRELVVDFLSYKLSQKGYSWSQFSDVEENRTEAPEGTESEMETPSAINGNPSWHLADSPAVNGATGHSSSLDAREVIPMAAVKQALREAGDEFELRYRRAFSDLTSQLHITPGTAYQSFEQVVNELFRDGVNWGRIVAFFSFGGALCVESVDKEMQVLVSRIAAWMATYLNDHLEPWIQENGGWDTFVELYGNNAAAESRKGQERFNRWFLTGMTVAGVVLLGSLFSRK

Row | Compound | pIC50 (human CYP3A4 enzyme [1]) | DNAUC [2] | AUC (in vivo) [ng·h/mL] | pIC50 (BCL2) | pIC50 (BCL2 (G101V)) | IC50 (BCL2 (D103Y)) [nM] | pIC50 (RS4; 11 cells [3]; Homo sapiens, RS4-11, 72 h) | IC50 (BCL-XL; values in nM) [nM] | pIC50 (human platelets) | T/C % (RS4; 11 cells [4]; 5 mg/kg by gavage) [%] | AUC (Rat absorption test) [ng·h/mL] | DNAUC (Canine absorption test) | pIC50 (human CYP3A4 enzyme [5]) | T/C % (RS4; 11 cells [4]; 15 mg/kg by gavage) [%] | pIC50 (RS4; 11 cells [3]) | IC50 (BCL-XL; values given in μM) [nM]
1 | COc1ccc(CN2CCN(C3CC4(CCN(c5cc(Oc6cnc7[nH]ccc7c6)c(C(=O)NS(=O)(=O)c6ccc(NCC7(F)CCOCC7)c([N+](=O)[O-])c6)cc5F)CC4)C3)[C@H](c3ccccc3C(C)C)C2)cc1 [compound 152, (R)-2-((1H-pyrrolo[2,3-b]pyrid-5-yl)oxy)-5-fluoro-N-((4-(((4-fluorotetrahydro-2H-pyran-4-yl)methyl)amino)-3-nitrophenyl)sulfonyl)-4-(2-(2-(2-isopropylphenyl)-4-(4-methoxybenzyl)piperazin-1-yl)-7-azaspiro[3.5]non-7-yl)benzamide] | < 4.70 | 13685 AUC (h*ng/mL)/dose (mg/kg) | 3330 |  |  |  |  |  |  |  |  |  |  |  |  | 
2 | COc1ccc(CN2CCN(C3CC4(CCN(c5cc(Oc6cnc7[nH]ccc7c6)c(C(=O)NS(=O)(=O)c6ccc(NC[C@H]7CC[C@](C)(O)CC7)c([N+](=O)[O-])c6)cc5F)CC4)C3)[C@H](c3ccccc3C(C)C)C2)cc1 [compound 234] |  |  |  | > 8.00 | > 8.00 | < 10 | > 9.30 | > 500 | < 5.30 | 1.26 | 5630 | 9103 AUC (h*ng/mL)/dose (mg/kg) | < 4.70 |  |  | 
3 | COc1ccc(CN2CCN(C3CC4(CCN(c5cc(Oc6cnc7[nH]ccc7c6)c(C(=O)NS(=O)(=O)c6ccc(NC[C@H]7CC[C@](C)(O)CC7)c([N+](=O)[O-])c6)cn5)CC4)C3)[C@H](c3ccccc3C(C)C)C2)cc1 [compound 256, 4-((1H-pyrrolo[2,3-b]pyrid-5-yl)oxy)-N-((4-((((1r, 4r)-4-hydroxy-4-methylcyclohexyl)methyl)amino)-3-nitrophenyl)sulfonyl)-6-(2-((R)-2-(2-isopropylphenyl)-4-(4-methoxybenzyl)piperazin-1-yl)-7-azaspiro[3.5]non-7-yl) nicotinamide] |  |  |  | > 8.00 | > 8.00 | < 10 | > 9.30 |  |  |  | 1800 |  | < 4.70 |  |  | 
4 | COc1ccc(CN2CCN(C3CC4(CCN(c5ccc(C(=O)NS(=O)(=O)c6cc([N+](=O)[O-])c(NCC7(F)CCOCC7)c7[nH]cnc67)c(Oc6cnc7[nH]ccc7c6)c5)CC4)C3)[C@H](c3ccccc3C(C)C)C2)cc1 [compound 261, (R)-2-((1H-pyrrolo[2,3-b]pyrid-5-yl)oxy)-N-((7-(((4-fluorotetrahydro-2H-pyran-4-yl)methyl)amino)-6-nitro-1H-benzo[d]imidazol-4-yl)sulfonyl)-4-(2-(2-(2-isopropylphenyl)-4-(4-methoxybenzyl)piperazin-1-yl)-7-azaspiro[3.5]non-7-yl)benzamide] |  |  |  | > 8.00 | > 8.00 | < 10 | > 9.30 |  |  |  | 1210 |  | < 4.70 | 5.35 |  | 
5 | COc1ccc(CN2CCN(C3CC4(CCN(c5cc(Oc6cnc7[nH]ccc7c6)c(C(=O)NS(=O)(=O)c6cc([N+](=O)[O-])c(NC[C@H]7CC[C@](C)(O)CC7)c7[nH]cnc67)cn5)CC4)C3)[C@H](c3ccccc3C(C)C)C2)cc1 [compound 266, 4-((1H-pyrrolo[2,3-b]pyrid-5-yl)oxy)-N-((7-((((1r,4r)-4-hydroxy-4-methylcyclohexyl)methyl)amino)-6-nitro-1H-benzo[d]imidazol-4-yl)sulfonyl)-6-(2-((R)-2-(2-isopropylphenyl)-4-(4-methoxybenzyl)piperazin-1-yl)-7-azaspiro[3.5]non-7-yl) nicotinamide] |  |  |  | > 8.00 | > 8.00 | < 10 | > 9.30 |  |  | 15.38 |  |  | < 4.70 |  |  | 
6 | (R)-2-((1H-pyrrolo[2,3-b]pyrid-5-yl)oxy)-5-fluoro-N-((4-(((4-fluorotetrahydro-2H-pyran-4-yl)methyl)amino)-3-nitrophenyl)sulfonyl)-4-(2-(2-(2-isopropylphenyl)-4-(4-methoxybenzyl)piperazin-1-yl)-7-azaspiro[3.5]non-7-yl)benzamide [compound 152] |  |  |  | > 8.00 | > 8.00 | < 10 |  |  | < 5.30 | 0.35 |  |  |  |  | > 9.30 | > 1000
